US5767068A, “Pure biologically active colistin, its components and a colistin formulation for treatment of pulmonary infections” (Pathogenesis Corporation, priority 1997, dated 1998)

How the values were obtained:
Pseudomonas aeruginosa [1] = settings: cited from earlier work
Pseudomonas aeruginosa [2] = assay: Time kill kinetic study of bactericidal activity; type: cell-based
Method: Comparison of anti-Pseudomonas aeruginosa activities of colimycin and colistin hydrochloride was performed using time kill kinetic studies as described in Antimicrobial Susceptibility Testing, Section 5.16.: Tests to assess bactericidal activity, Clinical Microbiology Procedure Handbook, Ed. Henry D. Isenberg, ASM, Washington, DC (1992). The exact procedure is described in Example 14.
Briefly, tests were similar to those used for determining MICs, except that the final test volume was larger (10 mL) to allow sampling at various time points. Parenteral colimycin was freshly diluted immediately before testing. Cultures were incubated at 37° C. At initial set-up and at various time-points, cultures were plated, with or without further dilution, onto sheep blood agar plates. Plates were incubated for 18-24 hours, and the number of CFU/mL was determined and plotted to determine the percentage of surviving organisms and the time required to achieve 99.9% killing. Results are seen in FIG. 15.
In this study, Pseudomonas aeruginosa organisms were exposed to varying concentrations of colistin or colimycin as indicated in FIG. 15. Concentrations of colimycin were between 8-64 μg/ml. Concentrations of colistin component IV hydrochloride were 0.25 and 0.5 μg/ml, that is 32-256 (for 0.25 μg/ml) and 16-128 (for 0.5 μg/ml) times lower that concentrations of colimycin. Colony-forming unit (CFU) per ml were determined and plotted against drug exposure time in hours.
Time kill kinetic studies were performed as described in (Antimicrobial Susceptibility Testing, Section 5.16. Tests to assess bactericidal activity, in Clinical Microbiology Procedure Handbook (supra).
Tests were set in the same way used for determining MICs (Example 13), except that the final test volume was larger (10 mL) to allow sampling at various time points. Cultures were incubated at 37° C. At initial set-up and at various desired time-points, cultures were sampled and plated (with or without further dilution) onto sheep blood agar plates. Plates were incubated for 18-24 hours, and the number of CFU/mL was determined and plotted to determine the percentage of surviving organisms and the time required to achieve 99.9% killing.

[3] = 2,000,000 units nebulized; cited from earlier work
[4] = in situ in the recipient patient body; cited from earlier work
[5] = systemic intravenous, acute pulmonary exacerbation; cited from earlier work
[6] = pH of freshly dissolved colimycin solutions over time; type: physicochemical; settings: 10.0, 15.0 and 20.0 mg/ml in water, all cases
Method: Acidic stability of the colimycin solution was determined according to Example 11. Briefly, colimycin (405 mg) was freshly dissolved in water to achieve 10.0 mg/ml, 15.0 mg/ml, and 20.0 mg/ml solutions. These values correspond to concentrations of 3.7 mg/ml, 5.6 mg/ml and 7.4 mg/ml colistin base equivalent. Solution pH was monitored continuously at various times from 1 minute to 180 minutes and pH values and times were recorded.
The pH of freshly dissolved colimycin was determined by weighing a freshly opened vial of Coly-Mycin M Parenteral, Parke-Davis, lot# 01966P, containing 405 mg into 20 ml glass screwcap scintillation vials and adding an appropriate volume of sterile irrigation water to achieve 10.0 mg/ml, 15.0 mg/ml, and 20.0 mg/ml solutions. These values correspond to concentrations of 3.7 mg/ml, 5.6 mg/ml and 7.4 mg/ml colistin base equivalent. Solution pH was then monitored continuously using a Beckman Phi-10 pH meter fitted with a Beckman Futura Plus combination electrode calibrated at pH 4.0 and 7.0 as per manufacturer's instructions prior to use. At various times from 1 minute to 180 minutes, pH values and times were recorded.

[7] = Jet nebulization (Pari LC Jet) with laser diffraction aerosol characterization; type: physicochemical; settings: Pari LC Jet nebulizer, n=3
Method: Colimycin was freshly dissolved in 37.5 mM NaCl at a concentration of 20 mg/ml colistin base equivalent immediately prior to nebulization. Colistin component IV sulfate was dissolved in 120 mM sodium chloride, and the pH was adjusted to 7.0 with 1 molar sodium hydroxide.
Four ml of solution to be nebulized was placed in a Pari LC Jet nebulizer fitted with a Pulmonaide Compressor (DeVilbiss Model 5650D) with an air flow rate of 4-6 liters/minute. Aerosols generated are characterized by passing through a laser diffraction particle analyzer (Malvern Mastersizer X). Each formulation was analyzed multiple times to determine reproducibility of results, which were expressed as total obscuration time, mass median average diameter, and respirable fraction.
In order to characterize colistin aerosols, and to investigate differences between the colimycin and colistin aerosol formulations, comparisons of the aerosolization of 150 mM (isotonic) NaCl alone, 20 mg/ml colistin component IV sulfate in 120 mM or 20 mg/ml colimycin in […] NaCl were made. Results are shown in FIG. 18, which is a comparison of the times required for aerosolization of 4 mL of the three solutions. The two drug solutions were analyzed three times, and saline was analyzed four times. Bars show standard deviations of measurements.
Colimycin was freshly dissolved in 37.5 mM […] NaCl at a concentration of 20 mg (colistin base equivalents)/ml solution immediately prior to nebulization. […]
Four ml of solution to be nebulized was placed in a Pari LC Jet nebulizer fitted with a Pulmonaide Compressor, DeVilbiss Model 5650D, with an air flow rate of 4-6 liters/minute. […] Each formulation was analyzed multiple times to determine reproducibility of results, which were expressed as total obscuration time, mass median particle diameter, and respirable fraction.
Mass median particle diameters were expressed as average ±standard deviation (n) for aerosols.
Average respirable fractions were calculated as average percentage of particles ranging from 1 micron to 6 microns in diameter within the aerosol over time.

[8] = 20 mg/ml, average±standard deviation

Row | Compound | strains of Pseudomonas aeruginosa sensitive to treatment (Pseudomonas aeruginosa [1]) | eradication of Pseudomonas aeruginosa organism (Pseudomonas aeruginosa [2]; 8 μg/mL, 4 hours of testing) | killing of test organism (Pseudomonas aeruginosa [2]; 16 μg/mL, at 3 hours) | time at which over 5 logs killing was shown (Pseudomonas aeruginosa [2]; 64 μg/mL) [hours] | concentration required for similar level of killing (over 5 logs within 2 hours) (Pseudomonas aeruginosa [2]; freshly dissolved) [μg/ml] | patients reporting chest tightness (bronchoconstriction response) [3] | drug converted to colistin in an hour [4] [%] | cases with nephrotoxicity symptoms [5] | cases with neurotoxicity symptoms [5] | pH of solution within 3 minutes [6] | average respirable fraction (particles from 1 micron to 6 microns) [7, 8] [percentage] | mass median particle diameter of the aerosol [7, 8] [microns] | aerosolization time ([7]; 4 mL of 20 mg/ml solution, mean) [min]
1 | NC[C@H]1O[C@H](O[C@H]2[C@H](O)[C@@H](O[C@H]3O[C@H](CO)[C@@H](O)[C@H](N)[C@H]3O)[C@H](N)C[C@@H]2N)[C@H](N)C[C@@H]1O [tobramycin] | about 90% |  |  |  |  |  |  |  |  |  |  |  | 
2 | colimycin |  | did not, even at 4 hours of testing, eradicate | over 5 logs | 1.5 | 32 | approximately 65% | ~3 | about 5% | about 29% | > 7.5 | 58.77±2.03 | 4.11±0.29 | 10.53
